Consider 13 molecules from ChEMBL document CHEMBL1157483, “Discovery of potent, orally active benzimidazole glucagon receptor antagonists” (Bioorg Med Chem Lett, 2008).

The target of data set [1] is T1, Glucagon receptor (Homo sapiens, UniProt P47871). Kind of data set: Displacement of [125I]glucagon from human GCGR expressed in CHO cells. It is filed as cell-based.
For data set [2], the target named is T1, Glucagon receptor. The data set is described as follows: Antagonist activity against human GCGR expressed in CHO cells assessed as glucagon-induced cAMP accumulation. In kind it is functional, cell-based.
Data set [3] has as its target T2, Gastric inhibitory polypeptide receptor (Homo sapiens, UniProt P48546).
T2 sequence (P48546 whole entry): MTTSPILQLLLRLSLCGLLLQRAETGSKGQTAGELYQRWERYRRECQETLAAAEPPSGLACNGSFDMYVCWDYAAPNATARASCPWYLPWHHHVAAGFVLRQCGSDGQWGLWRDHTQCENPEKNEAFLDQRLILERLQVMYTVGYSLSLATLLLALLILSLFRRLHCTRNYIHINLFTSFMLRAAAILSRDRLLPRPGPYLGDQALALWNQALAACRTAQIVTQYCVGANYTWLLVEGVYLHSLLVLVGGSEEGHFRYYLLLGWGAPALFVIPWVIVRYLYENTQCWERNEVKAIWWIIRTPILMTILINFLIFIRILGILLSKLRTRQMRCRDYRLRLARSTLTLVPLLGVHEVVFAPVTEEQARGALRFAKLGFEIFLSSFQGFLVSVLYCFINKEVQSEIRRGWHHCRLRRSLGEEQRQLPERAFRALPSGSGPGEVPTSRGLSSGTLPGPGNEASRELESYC
Kind of data set: Binding affinity against human GIP.

For data set [4], the species on record is Homo sapiens. The data set is described as follows: Selectivity for human glucagon receptor over human GIP.
Data set [5] is filed under the species Homo sapiens. Kind of data set: Selectivity for human glucagon receptor over human GLP1.
Data set [6] can be described thus: Clearance in mouse at 1 mg/kg, iv and 2 mg/kg, po. The settings on record: in vivo. It is filed as ADME, organism-based.
Data set [7] is described as follows: Volume of distribution at steady state in mouse at 1 mg/kg, iv and 2 mg/kg, po. It is filed as ADME, organism-based. The settings on record: in vivo, read-out: Vdss.
Data set [8] can be described thus: Half life in mouse at 1 mg/kg, iv and 2 mg/kg, po. It is filed as ADME, organism-based. The settings on record: in vivo.
Data set [9] can be described thus: Oral bioavailability in mouse at 2 mg/kg. In kind it is ADME, organism-based. The conditions noted are these: in vivo.
Data set [10] can be described thus: Clearance in rat at 1 mg/kg, iv and 2 mg/kg, po. It is filed as ADME, organism-based. The settings on record: in vivo.
Data set [11] can be described thus: Volume of distribution at steady state in rat at 1 mg/kg, iv and 2 mg/kg, po. It is filed as ADME, organism-based. The conditions noted are these: in vivo, read-out: Vdss.
Data set [12] in a line: Half life in rat at 1 mg/kg, iv and 2 mg/kg, po. In kind it is ADME, organism-based. The conditions noted are these: in vivo.
Data set [13] is described as follows: Oral bioavailability in rat at 2 mg/kg. It is filed as ADME, organism-based. The conditions noted are these: in vivo.
Data set [14] concerns the target Glucagon-like peptide 1 receptor, Homo sapiens (UniProt P43220). The data set is described as follows: Binding affinity against human GLP1.
Data set [15] deals with Voltage-gated inwardly rectifying potassium channel KCNH2 (Homo sapiens, UniProt Q12809). The data set is described as follows: Inhibition of hERG potassium channel. In kind it is toxicity.
Voltage-gated inwardly rectifying potassium channel KCNH2, sequence (Q12809 whole entry): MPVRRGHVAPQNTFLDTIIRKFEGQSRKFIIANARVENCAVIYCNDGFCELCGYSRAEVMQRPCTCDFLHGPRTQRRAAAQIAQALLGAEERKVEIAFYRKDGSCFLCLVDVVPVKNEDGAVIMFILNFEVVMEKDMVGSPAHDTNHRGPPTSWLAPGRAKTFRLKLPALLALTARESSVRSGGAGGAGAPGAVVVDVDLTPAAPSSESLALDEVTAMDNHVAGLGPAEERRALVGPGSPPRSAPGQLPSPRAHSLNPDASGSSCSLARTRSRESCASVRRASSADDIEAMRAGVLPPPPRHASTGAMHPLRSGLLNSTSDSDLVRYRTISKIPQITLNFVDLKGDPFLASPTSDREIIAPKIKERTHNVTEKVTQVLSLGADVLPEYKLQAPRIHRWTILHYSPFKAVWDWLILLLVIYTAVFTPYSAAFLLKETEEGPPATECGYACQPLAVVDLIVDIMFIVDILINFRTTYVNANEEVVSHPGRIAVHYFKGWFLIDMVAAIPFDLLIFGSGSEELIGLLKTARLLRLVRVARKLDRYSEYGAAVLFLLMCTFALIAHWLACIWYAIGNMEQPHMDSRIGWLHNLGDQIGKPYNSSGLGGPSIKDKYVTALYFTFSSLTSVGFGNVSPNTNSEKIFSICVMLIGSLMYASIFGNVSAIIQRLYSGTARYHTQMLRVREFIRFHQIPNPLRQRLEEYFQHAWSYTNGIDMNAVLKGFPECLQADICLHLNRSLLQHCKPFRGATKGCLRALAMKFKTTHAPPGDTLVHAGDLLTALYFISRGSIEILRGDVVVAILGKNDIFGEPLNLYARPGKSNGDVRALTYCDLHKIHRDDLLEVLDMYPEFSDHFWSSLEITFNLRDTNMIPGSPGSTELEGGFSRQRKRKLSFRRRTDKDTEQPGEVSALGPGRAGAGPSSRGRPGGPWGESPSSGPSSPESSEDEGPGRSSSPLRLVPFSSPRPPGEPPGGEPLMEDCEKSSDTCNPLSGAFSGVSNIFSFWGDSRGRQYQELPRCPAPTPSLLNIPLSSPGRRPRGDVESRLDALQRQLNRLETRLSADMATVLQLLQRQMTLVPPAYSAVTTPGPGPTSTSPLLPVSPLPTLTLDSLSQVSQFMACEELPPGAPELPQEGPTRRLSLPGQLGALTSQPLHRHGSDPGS
The next data set concerns the target Cytochrome P450 3A4 (Homo sapiens, UniProt P08684). Kind of data set: Inhibition of CYP3A4. It is filed as ADME.
The next data set has as its target Cytochrome P450 2C9 (Homo sapiens, UniProt P11712). Kind of data set: Inhibition of CYP2C9. In kind it is ADME.
Another data set addresses Cytochrome P450 2D6 (Homo sapiens, UniProt P10635). Kind of data set: Inhibition of CYP2D6. It is filed as ADME.
Data set [16] concerns Mus musculus. Kind of data set: Inhibition of glucagon-dependent glucose excursion in transgenic mouse expressing human glucagon receptor at 3 to 30 mg/kg, po. In kind it is functional, organism-based.
A short description of data set [17]: Clearance in dog at 0.25 mg/kg, iv and 1 mg/kg, po. It is filed as ADME, organism-based, Canis lupus familiaris. The settings on record: in vivo.
The nature of data set [18]: Volume of distribution at steady state in dog at 0.25 mg/kg, iv and 1 mg/kg, po. In kind it is ADME, organism-based, Canis lupus familiaris. The conditions noted are these: in vivo, read-out: Vdss.
A short description of data set [19]: Half life in dog at 0.25 mg/kg, iv and 1 mg/kg, po. The settings on record: in vivo. In kind it is ADME, organism-based, Canis lupus familiaris.
Data set [20] can be described thus: Oral bioavailability in dog at 1 mg/kg. In kind it is ADME, organism-based, Canis lupus familiaris. The settings on record: in vivo.
Data set [21] can be described thus: Clearance in rhesus monkey at 0.5 mg/kg, iv and 2 mg/kg, po. The conditions noted are these: in vivo. In kind it is ADME, organism-based, Macaca mulatta.
Data set [22] is described as follows: Volume of distribution at steady state in rhesus monkey at 0.5 mg/kg, iv and 2 mg/kg, po. The conditions noted are these: in vivo, read-out: Vdss. It is filed as ADME, organism-based, Macaca mulatta.
Data set [23] in a line: Half life in rhesus monkey at 0.5 mg/kg, iv and 2 mg/kg, po. The settings on record: in vivo. It is filed as ADME, organism-based, Macaca mulatta.
A short description of data set [24]: Oral bioavailability in rhesus monkey at 2 mg/kg. The conditions noted are these: in vivo. In kind it is ADME, organism-based, Macaca mulatta.
Data set [25] in a line: Antagonist activity against rhesus monkey glucagon receptor assessed as cAMP accumulation. In kind it is functional, Macaca mulatta. Background: cAMP levels reflect the balance of adenylyl cyclase and phosphodiesterase activity.
In data set [26] the test system is Rhesus monkey. Kind of data set: Inhibition of glucagon-dependent glucose excursion in rhesus monkey at 10 mg/kg, po. In kind it is functional, organism-based. Further details: dose 10 mg/kg. The conditions noted are these: Macaca mulatta.
Data set [27] concerns Mus musculus. The data set is described as follows: Reduction of glucose level in po dosed fat diet-induced diabetic mouse transgenic model expressing human glucagon receptor administered for 10 days. In kind it is functional, organism-based.
Data set [28] concerns Rhesus monkey. Kind of data set: Inhibition of glucagon-dependent glucose excursion in rhesus monkey at 3 mg/kg, po. Further details: dose 3 mg/kg. The settings on record: Macaca mulatta. In kind it is functional, organism-based.

The source made the active and inactive calls. The rule behind the calls is not given here. Where only a bound is given, the exact number is not on record here.

T1 sequence (P47871 whole entry): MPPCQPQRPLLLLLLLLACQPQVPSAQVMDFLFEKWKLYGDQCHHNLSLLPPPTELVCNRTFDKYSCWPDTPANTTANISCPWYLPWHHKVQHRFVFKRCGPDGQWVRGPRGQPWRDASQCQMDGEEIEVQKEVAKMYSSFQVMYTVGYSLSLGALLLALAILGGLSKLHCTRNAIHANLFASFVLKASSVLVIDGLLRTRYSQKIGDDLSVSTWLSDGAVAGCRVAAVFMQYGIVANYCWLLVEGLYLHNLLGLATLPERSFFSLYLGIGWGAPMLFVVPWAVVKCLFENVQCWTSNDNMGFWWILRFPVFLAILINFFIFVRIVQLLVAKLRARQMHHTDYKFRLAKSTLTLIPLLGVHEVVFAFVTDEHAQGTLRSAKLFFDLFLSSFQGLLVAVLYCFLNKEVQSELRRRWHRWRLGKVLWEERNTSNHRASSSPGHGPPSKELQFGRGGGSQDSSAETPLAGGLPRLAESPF
Glucagon-like peptide 1 receptor, Homo sapiens, sequence (P43220 whole entry, looked up): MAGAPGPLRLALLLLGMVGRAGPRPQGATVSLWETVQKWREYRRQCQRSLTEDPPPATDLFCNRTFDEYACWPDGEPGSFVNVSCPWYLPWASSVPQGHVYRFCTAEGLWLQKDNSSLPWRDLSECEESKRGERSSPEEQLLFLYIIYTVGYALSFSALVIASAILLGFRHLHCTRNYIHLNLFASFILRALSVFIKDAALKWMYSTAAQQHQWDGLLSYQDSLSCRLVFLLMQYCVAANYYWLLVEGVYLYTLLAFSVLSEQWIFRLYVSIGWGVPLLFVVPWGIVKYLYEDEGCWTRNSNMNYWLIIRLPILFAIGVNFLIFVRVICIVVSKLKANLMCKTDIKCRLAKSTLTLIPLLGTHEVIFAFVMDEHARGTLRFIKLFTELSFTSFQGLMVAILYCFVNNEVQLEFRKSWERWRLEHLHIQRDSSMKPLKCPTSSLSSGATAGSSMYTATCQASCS
Cytochrome P450 2C9, sequence (P11712 whole entry): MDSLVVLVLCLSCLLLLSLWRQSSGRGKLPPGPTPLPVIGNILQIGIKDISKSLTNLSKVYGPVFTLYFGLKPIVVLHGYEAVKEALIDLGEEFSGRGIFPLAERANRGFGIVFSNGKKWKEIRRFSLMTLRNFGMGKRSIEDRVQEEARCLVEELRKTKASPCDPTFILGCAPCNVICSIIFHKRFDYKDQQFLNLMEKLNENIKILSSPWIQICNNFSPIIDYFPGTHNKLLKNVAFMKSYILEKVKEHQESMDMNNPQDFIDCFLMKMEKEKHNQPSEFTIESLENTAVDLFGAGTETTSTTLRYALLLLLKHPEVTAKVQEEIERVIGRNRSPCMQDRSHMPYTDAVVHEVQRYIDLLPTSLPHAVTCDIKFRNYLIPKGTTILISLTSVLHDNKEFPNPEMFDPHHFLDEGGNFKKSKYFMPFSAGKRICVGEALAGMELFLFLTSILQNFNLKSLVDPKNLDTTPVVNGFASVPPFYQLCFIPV
Cytochrome P450 3A4, sequence (P08684 whole entry): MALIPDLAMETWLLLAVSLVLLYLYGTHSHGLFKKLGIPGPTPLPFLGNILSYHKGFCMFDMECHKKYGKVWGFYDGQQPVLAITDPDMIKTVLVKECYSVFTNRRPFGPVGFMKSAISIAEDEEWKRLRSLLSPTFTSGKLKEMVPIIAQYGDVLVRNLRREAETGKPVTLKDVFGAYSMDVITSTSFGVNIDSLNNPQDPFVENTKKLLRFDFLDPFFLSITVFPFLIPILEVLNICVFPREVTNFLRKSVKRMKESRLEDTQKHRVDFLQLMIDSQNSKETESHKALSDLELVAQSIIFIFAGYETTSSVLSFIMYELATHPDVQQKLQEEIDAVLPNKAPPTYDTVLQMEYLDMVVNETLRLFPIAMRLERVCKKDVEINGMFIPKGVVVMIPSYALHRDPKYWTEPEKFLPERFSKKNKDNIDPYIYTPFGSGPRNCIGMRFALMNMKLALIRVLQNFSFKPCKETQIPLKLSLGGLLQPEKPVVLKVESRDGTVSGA
Cytochrome P450 2D6, sequence (P10635 whole entry): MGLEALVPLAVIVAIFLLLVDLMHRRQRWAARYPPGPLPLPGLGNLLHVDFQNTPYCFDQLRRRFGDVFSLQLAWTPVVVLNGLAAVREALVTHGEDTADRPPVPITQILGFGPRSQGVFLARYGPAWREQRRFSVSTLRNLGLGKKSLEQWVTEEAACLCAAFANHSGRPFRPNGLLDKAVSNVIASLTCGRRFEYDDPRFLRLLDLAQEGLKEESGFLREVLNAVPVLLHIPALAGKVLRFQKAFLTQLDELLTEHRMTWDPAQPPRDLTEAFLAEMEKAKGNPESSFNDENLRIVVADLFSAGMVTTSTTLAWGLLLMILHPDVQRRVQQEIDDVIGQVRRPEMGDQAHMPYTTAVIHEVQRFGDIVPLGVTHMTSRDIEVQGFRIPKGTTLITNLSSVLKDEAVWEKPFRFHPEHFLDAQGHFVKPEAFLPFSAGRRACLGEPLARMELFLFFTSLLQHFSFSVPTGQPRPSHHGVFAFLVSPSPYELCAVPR

The IC50 is the concentration that gives 50% inhibition. Take `CCCn1c(N(Cc2ccc(C(=O)Nc3nnn[nH]3)cc2)[C@H]2CC[C@H](C(C)(C)C)CC2)nc2ccccc21`: the IC50 on Glucagon receptor [1] came out at 24 nM.

What is called half-life is how long it takes for the measured level to halve. A word on the bioavailability: it is the share of a dose that reaches the circulation, judged against a reference dose that is usually intravenous. Take `Cn1c(N(Cc2ccc(C(=O)Nc3nnn[nH]3)cc2)[C@H]2CC[C@H](C(C)(C)C)CC2)nc2cc(OC3CCCC3)ccc21`: the IC50 on Glucagon receptor [1] worked out at 1 nM; at Glucagon receptor [2], 9 nM; in [3], 2000 nM; in [14], 5000 nM. Further, the Selectivity ratio in the data set filed under Homo sapiens [4] and in the data set listed under Homo sapiens [5] was over 50 throughout. Moreover, the clearance came to 10 mL/min/kg in data set [6] and 13 mL/min/kg in data set [10]. Also, the results for the Vd in data set [7] and in [11] were 0.5 L/kg and 0.6 L/kg, respectively. Moreover, the half-life in data set [8] was 3.2 h; in data set [12], 2.9 h. For the same molecule, the bioavailability in data set [9] turned out to be 2%; in [13] it was 5%.

With `Cn1c(N(Cc2ccc(C(=O)Nc3nnn[nH]3)cc2)[C@H]2CC[C@H](C(C)(C)C)CC2)nc2cc(C(F)(F)F)ccc21`, the IC50 is 11 nM at Glucagon receptor [1]; 62 nM at Glucagon receptor [2]; 6000 nM in data set [3]; over 10000 nM in data set [15]; over 10000 nM on Cytochrome P450 3A4; over 10000 nM on Cytochrome P450 2C9. The IC50 against Cytochrome P450 2D6 is over 10000 nM; in data set [25] it was 111 nM; in data set [14], 6800 nM. In addition, the Selectivity ratio in the data set filed under Homo sapiens [4] and in the data set filed under Homo sapiens [5] was over 50 in each case. For the same molecule, the outcome with Mus musculus [16], with Rhesus monkey [26] and in the data set with Rhesus monkey [28] was Active. In addition, the clearance in data set [6] came out at 4 mL/min/kg; in data set [10], 12 mL/min/kg; in data set [17], 3.8 mL/min/kg; in [21], 16 mL/min/kg. For the same molecule, the Vd in [7] was 0.33 L/kg; in [11], 0.74 L/kg; in data set [18], 0.5 L/kg; in [22] it was 0.8 L/kg. The half-life was 1.9 h in data set [8], 1.6 h in data set [12], 2.1 h in data set [19] and 2.4 h in [23]. Further, the bioavailability came out at 2% in [9], 5% in data set [13], 27% in data set [20] and 23% in data set [24]. In addition, the Activity result with Mus musculus [27] is “Dose-dependent effect”.

Turning to `Cn1c(N(Cc2ccc(C(=O)Nc3nnn[nH]3)cc2)[C@H]2CC[C@H](C(C)(C)C)CC2)nc2cc(O)ccc21`, the half-inhibitory concentration (IC50) on Glucagon receptor [1] was 2 nM; on Glucagon receptor [2] it was over 1000 nM; in data set [3], over 1000 nM. Moreover, the Selectivity ratio in the data set listed under Homo sapiens [4] and in the data set filed under Homo sapiens [5] was over 50 each time.

For the molecule `Cc1cc2nc(N(Cc3ccc(C(=O)Nc4nnn[nH]4)cc3)[C@H]3CC[C@H](C(C)(C)C)CC3)n(C)c2cc1C`, the IC50 at Glucagon receptor [1] was 6 nM; at Glucagon receptor [2], 18 nM; in data set [3] it was over 10000 nM. The Selectivity ratio in the data set listed under Homo sapiens [4] and in the data set listed under Homo sapiens [5] was over 50 in each case.

Take `Cc1ccc2[nH]c(N(Cc3ccc(C(=O)Nc4nnn[nH]4)cc3)c3ccc(Oc4ccc(Cl)cc4)c(Cl)c3)nc2c1`: the IC50 on Glucagon receptor [1] is 13 nM; on Glucagon receptor [2], over 1000 nM.

Take `CC(C)(C)[C@H]1CC[C@@]2(CCN(c3ccc(OC(F)(F)F)cc3)C(=O)N2Cc2ccc(C(=O)Nc3nnn[nH]3)cc2)CC1`: the IC50 on Glucagon receptor [1] was found to be 32 nM.

As for `COc1ccc2nc(N(Cc3ccc(C(=O)Nc4nnn[nH]4)cc3)[C@H]3CC[C@H](C(C)(C)C)CC3)n(C)c2c1`, the IC50 on Glucagon receptor [1] is 4 nM; at Glucagon receptor [2], 213 nM; in [3], over 1000 nM. For the same molecule, the Selectivity ratio in the data set listed under Homo sapiens [4] and in the data set filed under Homo sapiens [5] was over 50 throughout.

On to `COc1ccc2c(c1)nc(N(Cc1ccc(C(=O)Nc3nnn[nH]3)cc1)[C@H]1CC[C@H](C(C)(C)C)CC1)n2C`, for which the IC50 at Glucagon receptor [1] came to 4 nM; at Glucagon receptor [2] it was 38 nM; in data set [3] it was 2500 nM; in [14], 5900 nM. The Selectivity ratio in the data set filed under Homo sapiens [4] and in the data set listed under Homo sapiens [5] was over 50 throughout.

With `Cc1ccc2[nH]c(N(Cc3ccc(C(=O)Nc4nnn[nH]4)cc3)[C@H]3CC[C@H](C(C)(C)C)CC3)nc2c1`, the IC50 at Glucagon receptor [1] is 10 nM; at Glucagon receptor [2], over 1000 nM.

Turning to `Cn1c(N(Cc2ccc(C(=O)Nc3nnn[nH]3)cc2)c2ccc(C(C)(C)C)cc2)nc2ccccc21`, the figures for the IC50 on Glucagon receptor [1] and on Glucagon receptor [2] were 31 nM and 810 nM, respectively.

Consider `CCCOc1ccc2nc(N(Cc3ccc(C(=O)Nc4nnn[nH]4)cc3)[C@H]3CC[C@H](C(C)(C)C)CC3)n(C)c2c1`, for which the half-maximal inhibitory concentration (IC50) at Glucagon receptor [1] was 1 nM; at Glucagon receptor [2], 8 nM; in data set [3] it was 4900 nM; in [14], 5000 nM. In addition, the Selectivity ratio in the data set listed under Homo sapiens [4] and in the data set filed under Homo sapiens [5] was over 50 throughout.

As to `CCOc1ccc2c(c1)nc(N(Cc1ccc(C(=O)Nc3nnn[nH]3)cc1)[C@H]1CC[C@H](C(C)(C)C)CC1)n2C`, the IC50 turned out to be 2 nM on Glucagon receptor [1], 22 nM on Glucagon receptor [2], 2800 nM in data set [3] and 7600 nM in [14]. For the same molecule, the Selectivity ratio in the data set filed under Homo sapiens [4] and in the data set listed under Homo sapiens [5] was over 50 throughout.
